In ChEMBL document CHEMBL5725691, “Bromodomain inhibitors” (2018):

The compounds below were run against Bromodomain-containing protein 4 (Homo sapiens, UniProt O60885) (assay: His-tagged BRD4 was cloned, expressed and purified to homogeneity. […] BRD4 binding and inhibition was assessed by monitoring the interaction of biotinylated H4-tetraacetyl peptide (AnaSpec, H4K5/8/12/16(Ac), biotin-labeled) with the target using the AlphaScreen technology (Life Technologies). […] After 20 min incubation at room temp, Alpha streptavidin donor beads and Nickel Chelate acceptor beads were added to a final concentration of 5 μg/mL.).

IC50, < 500 nM:
CCS(=O)(=O)c1ccc(OCC2CC2)c(-c2cn(C)c(=O)c3c2OCC(=O)N3)c1
CCS(=O)(=O)Nc1ncc(Oc2ccc(F)cc2F)c(-c2cc(OC)c(=O)n(C)c2)n1
CCS(=O)(=O)c1ccc(NCC2CC2)c(-c2cc(Cl)c(=O)n(C)c2)c1
Cn1cc(-c2cc(S(C)(=O)=O)ccc2OCC2CC2)c2cc(C(F)(F)F)ccc2c1=O
Cc1cc(-c2cn(CS(C)(=O)=O)c(=O)cc2Oc2ccc(F)cc2F)cn(CC2CC2)c1=O
Cc1c(-c2cc(NS(C)(=O)=O)ccc2Oc2ccc(F)cc2F)cn(C)c(=O)c1C
CCCOc1ccc(S(C)(=O)=O)cc1-c1cn(C)c(=O)c2cnc(-c3cnn(C)c3)nc12
Cc1cc(-c2cc(OCc3ccccc3Cl)cc(S(C)(=O)=O)c2)cn(C)c1=O
